US10273226B2, “Pyrazolyl-heteroarylamides as pesticides” (Bayer Animal Health GmbH, priority 2014, dated 2019)

Key:
Type in all cases: in vivo
[1] = tested on: Boophilus microplus; assay: Boophilus microplus injection test; conditions: application rate 20 μg/animal; injection into abdomen; assessed after 7 days
Procedure: Boophilus microplus—Injection Test
(§1) Solvent: dimethyl sulphoxide
To produce an appropriate active ingredient formulation, 10 mg of active ingredient are mixed with 0.5 ml of solvent and the concentrate is diluted with solvent to the desired concentration.
1 μl of the active ingredient solution is injected into the abdomen of 5 engorged adult female cattle ticks (Boophilus microplus). The animals are transferred into dishes and kept in a climate-controlled room.
Efficacy is assessed after 7 days by laying of fertile eggs. Eggs which are not visibly fertile are stored in a climate-controlled cabinet until the larvae hatch after about 42 days. An efficacy of 100% means that none of the ticks has laid any fertile eggs; 0% means that all the eggs are fertile.

[2] = tested on: Ctenocephalides felis; assay: Ctenocephalides felis oral test; conditions: application rate 100 ppm in citrated cattle blood; after 2 days
Procedure: Ctenocephalides felis—Oral Test
as §1
For the purpose of producing an appropriate active ingredient formulation, 10 mg of active ingredient are mixed with 0.5 ml of dimethyl sulphoxide. Dilution with citrated cattle blood gives the desired concentration.
About 20 unfed adult cat fleas (Ctenocephalides felis) are placed into a chamber which is closed at the top and bottom with gauze. A metal cylinder whose bottom end is closed with parafilm is placed onto the chamber. The cylinder contains the blood/active ingredient preparation, which can be imbibed by the fleas through the parafilm membrane.
After 2 days, the kill in % is determined. 100% means that all of the fleas have been killed; 0% means that none of the fleas have been killed.

[3] = tested on: Lucilia cuprina; assay: Lucilia cuprina test; conditions: application rate 100 ppm; L1 larvae; after 2 days
Procedure: as §1
(§2) To produce an appropriate active ingredient formulation, 10 mg of active ingredient are mixed with 0.5 ml of dimethyl sulphoxide, and the concentrate is diluted with water to the desired concentration.
About 20 L1 larvae of the Australian sheep blowfly (Lucilia cuprina) are transferred into a test vessel containing minced horsemeat and the active ingredient preparation of the desired concentration.
After 2 days, the kill in % is determined. 100% means that all the larvae have been killed and 0% means that none of the larvae have been killed.

[4] = tested on: Musca domestica; assay: Musca domestica test; conditions: application rate 100 ppm; adult houseflies; after 2 days
Procedure: as §1, §2
Vessels containing a sponge treated with sugar solution and the active ingredient formulation of the desired concentration are populated with 10 adult houseflies (Musca domestica).
After 2 days, the kill in % is determined. 100% means that all of the flies have been killed; 0% means that none of the flies have been killed.

[5] = tested on: Phaedon cochleariae; assay: Phaedon cochleariae spray test; conditions: application rate 100 g/ha; larvae; after 7 days
Procedure: Phaedon cochleariae—Spray Test
(§3) To produce an appropriate active ingredient formulation, 1 part by weight of active ingredient is dissolved using the specified parts by weight of solvent and made up with water containing an emulsifier concentration of 1000 ppm until the desired concentration is attained. To produce further test concentrations, the preparation is diluted with emulsifier-containing water.
Discs of Chinese cabbage leaves (Brassica pekinensis) are sprayed with an active ingredient formulation of the desired concentration and, after drying, populated with larvae of the mustard beetle (Phaedon cochleariae).
After 7 days, efficacy in % is determined. 100% means that all the beetle larvae have been killed; 0% means that no beetle larvae have been killed.

[6] = tested on: Tetranychus urticae; assay: Tetranychus urticae spray test, OP-resistant; conditions: application rate 100 g/ha; after 6 days
Procedure: Tetranychus urticae—Spray Test, OP-Resistant
as §3
Discs of bean leaves (Phaseolus vulgaris) infested by all stages of the greenhouse red spider mite (Tetranychus urticae) are sprayed with an active ingredient formulation of the desired concentration.
After 6 days, efficacy in % is determined. 100% means that all the spider mites have been killed; 0% means that none of the spider mites have been killed.

[7] = tested on: Rhipicephalus sanguineus; assay: Rhipicephalus sanguineus in vitro contact test with adult brown dog ticks; conditions: application rate 5 μg/cm^2 (500 g/ha); after 48 h; ticks dead or moribund
Procedure: Rhipicephalus sanguineus—In Vitro Contact Tests with Adult Brown Dog Ticks
(§4) For the coating of the test tubes, 9 mg of active ingredient are first dissolved in 1 ml of acetone p.a. and then diluted to the desired concentration with acetone p.a. 250 μl of the solution are distributed homogeneously on the inner walls and base of a 25 ml test tube by turning and rocking on an orbital shaker (rocking rotation at 30 rpm for 2 h). With 900 ppm active ingredient solution and internal surface 44.7 cm^2, given homogeneous distribution, an area-based dose of 5 μg/cm^2 is achieved.
After the solvent has evaporated off, the tubes are populated with 5-10 adult dog ticks (Rhipicephalus sanguineus), sealed with a perforated plastic lid and incubated in a horizontal position in the dark at room temperature and ambient humidity. After 48 h, efficacy is determined. To this end, the ticks are knocked to the floor of the tube and incubated on a hotplate at 45-50° C. for not more than 5 min. Ticks which remain motionless on the floor or move in such an uncoordinated manner that they are unable to deliberately avoid the heat by climbing upwards are considered to be dead or moribund.
An efficacy of 100% means that all the ticks were dead or moribund. 0% efficacy means that none of the ticks had been harmed.

[8] = tested on: Spodoptera frugiperda; assay: Spodoptera frugiperda spray test; conditions: application rate 100 g/ha; caterpillars; after 7 days
Procedure: Spodoptera frugiperda—Spray Test
as §3
Leaf discs of maize (Zea mays) are sprayed with an active ingredient formulation of the desired concentration and, after drying, populated with caterpillars of the armyworm (Spodoptera frugiperda).
After 7 days, efficacy in % is determined. 100% means that all the caterpillars have been killed; 0% means that no caterpillars have been killed.

[9] = tested on: Ctenocephalides felis; assay: Ctenocephalides felis in vitro contact test with adult cat fleas; conditions: application rate 5 μg/cm^2 (500 g/ha); after 48 h; fleas dead or moribund
Procedure: Ctenocephalides felis—In Vitro Contact Tests with Adult Cat Fleas
as §4
After the solvent has evaporated off, the tubes are populated with 5-10 adult cat fleas (Ctenocephalides felis), sealed with a perforated plastic lid and incubated in a horizontal position at room temperature and ambient humidity. After 48 h, efficacy is determined. To this end, the test tubes are stood upright and the fleas are knocked to the base of the tube. Fleas which remain motionless at the base or move in an uncoordinated manner are considered to be dead or moribund.
100% efficacy means that all the fleas were dead or moribund. 0% efficacy means that no fleas were harmed.

Compound	efficacy (laying of fertile eggs) [1]	efficacy (kill in %) [2]	efficacy (kill in %) [3]	efficacy (kill in %) [4]	efficacy [5]	efficacy [6]	efficacy [7]	efficacy [8]	efficacy [9]
COC1CCC(C(=O)Nc2cc(-c3cnn(-c4c(C(F)(F)F)c(C(F)(F)C(F)(F)F)nn4C)c3)ccc2F)CC1 (mixture of isomers) [Example 1-047]	100%	100%	100%	80%	100%	100%	–	–	–
Cn1nc(C(F)(F)C(F)(F)F)c(C(F)(F)F)c1-n1cc(-c2cccc(NC(=O)C3CC3)c2)cn1 [Example 1-002]	100%	100%	100%	100%	100%	–	100%	83%	–
Cn1nc(C(F)(F)C(F)(F)F)c(C(F)(F)F)c1-n1cc(-c2cccc(NC(=O)CC(F)(F)F)c2)cn1 [Example 1-007]	100%	100%	100%	100%	100%	90%	100%	100%	–
Cn1nc(C(F)(F)C(F)(F)F)c(C(F)(F)F)c1-n1cc(-c2ccc(F)c(NC(=O)C3(Cl)CC3)c2)cn1 [Example 1-032]	100%	100%	100%	80%	–	–	100%	–	–
Cn1cc(C(=O)Nc2cc(-c3cnn(-c4c(C(F)(F)F)c(C(F)(F)C(F)(F)F)nn4C)c3)ccc2F)cn1 [Example 1-035]	100%	100%	100%	100%	100%	100%	80%	100%	–
Cn1nc(C(F)(F)C(F)(F)F)c(C(F)(F)F)c1-n1cc(-c2ccc(F)c(NC(=O)C3CC3)c2)cn1 [Example 1-055]	100%	100%	100%	100%	100%	90%	80%	100%	–
Cn1nc(C(F)(F)C(F)(F)F)c(C(F)(F)F)c1-n1cc(-c2ccc(F)c(NC(=O)c3ccccc3F)c2)cn1 [Example 1-071]	100%	90%	100%	80%	100%	100%	–	100%	–
Cn1nc(C(F)(F)C(F)(F)F)c(C(F)(F)F)c1-n1cc(-c2ccc(F)c(NC(=O)c3cccc(C#N)c3)c2)cn1 [Example 1-075]	100%	100%	100%	100%	–	–	100%	–	–
Cn1nc(C(F)(F)C(F)(F)F)c(C(F)(F)F)c1-n1cc(-c2ccc(F)c(NC(=O)C3CCCC3)c2)cn1 [Example 1-077]	100%	100%	100%	100%	–	–	100%	–	–
Cn1nc(C(F)(F)C(F)(F)F)c(C(F)(F)F)c1-n1cc(-c2ccc(F)c(NC(=O)c3ccc4c(c3)OC(F)(F)O4)c2)cn1 [Example 1-084]	100%	100%	100%	100%	100%	–	80%	100%	–
Cn1nc(C(F)(F)C(F)(F)F)c(C(F)(F)F)c1-n1cc(-c2ccc(F)c(NC(=O)c3cccnc3)c2)cn1 [Example 1-085]	100%	100%	100%	–	100%	100%	100%	83%	100%
Cc1cc(C(=O)Nc2cc(-c3cnn(-c4c(C(F)(F)F)c(C(F)(F)C(F)(F)F)nn4C)c3)ccc2F)ccc1F [Example 1-091]	100%	100%	100%	–	100%	100%	100%	100%	100%
COc1ccc(C(=O)Nc2cc(-c3cnn(-c4c(C(F)(F)F)c(C(F)(F)C(F)(F)F)nn4C)c3)ccc2F)cc1F [Example 1-095]	100%	100%	100%	–	100%	100%	100%	100%	100%
COc1cc(C(=O)Nc2cc(-c3cnn(-c4c(C(F)(F)F)c(C(F)(F)C(F)(F)F)nn4C)c3)ccc2F)ccc1C [Example 1-097]	100%	100%	100%	–	100%	100%	100%	100%	100%
Cn1nc(C(F)(F)C(F)(F)F)c(C(F)(F)F)c1-n1cc(-c2ccc(F)c(NC(=O)C(C)(C)c3cccc(Cl)c3)c2)cn1 [Example 1-119]	100%	–	100%	80%	–	–	–	–	–
Cn1nc(C(F)(F)C(F)(F)F)c(C(F)(F)F)c1-n1cc(-c2ccc(F)c(NC(=O)Cc3ccc(F)cc3Cl)c2)cn1 [Example 1-126]	100%	100%	100%	90%	100%	–	–	–	–
Cc1ncc(-c2cnn(-c3c(C(F)(F)F)c(C(F)(F)C(F)(F)F)nn3C)c2)cc1NC(=O)c1ccncc1 [Example 2-004]	100%	100%	100%	80%	100%	100%	–	100%	–
